{
  "source": "patent US20140228407A1",
  "about": "“TETRA-PYRIDINE COMPOUNDS AND COMPOSITION FOR PROTECTING CELLS, TISSUES AND ORGANS AGAINST ISCHEMIA-REPERFUSION INJURY” (YISSUM RESEARCH DEVELOPMENT COMPANY OF THE HEBREW …, priority 2011, published 2014)",
  "key": {"[1]": {"test_system": "CD rat", "assay": "Toxicity evaluation in rat after myocardial ischemia (Phase A: mortality, clinical observations, body weights)", "type": "in vivo", "conditions": "dose levels up to 2 mg/kg following myocardial ischemia", "description": "This study was conducted to evaluate the effects of the Compound #6 on cardiac function, infarct size, and Troponin I levels in a model of ischemia/reperfusion in the CD® (CR1CD® (SD)) rat. Phase A was conducted for toxicity evaluation purposes. In Phase B (the efficacy phase), two treatment groups of eight male rats were administered Compound #6 at dose levels of 0.2 and 2 mg/kg via intravenous infusion following myocardial infarction. […]\nThe animals were placed on mechanical ventilation and not intubated. […] In Phase A, the animals were recovered from anesthesia and evaluated for 4 days. […]\nIn Phase A, body weights for all animals were measured and recorded at receipt, prior to randomization, just prior to surgery, and daily for 3 days during the study. In Phase B, body weights for all animals were measured and recorded at receipt, prior to each randomization as applicable, and just prior to surgery, except that a body weight was not recorded prior to randomization for the animals received in the second shipment. In both phases, the body weights recorded at receipt and prior to randomization are not reported but are maintained in the study file."}, "[2]": {"test_system": "neonate rat cardiomyocyte cells", "assay": "Hypoxia/ischemia in neonatal rat cardiomyocyte cultures, LDH release", "type": "cell-based", "conditions": "30, 100 and 300 nm compound vs 1 μM TPEN; 150 min ischemia then reoxygenation", "description": "Rat hearts (1-2 days old) were sterilely removed and bathed three times in Ca^2+- and Mg^2+-free PBS to remove excess blood cells. The hearts were minced to small fragments and then agitated in a proteolytic enzyme-RDB solution prepared from a fig tree extract as described previously (Brik et al., 1990; Shneyvays et al., 2001). The RDB was diluted 1:200 in PBS at 25° C. for a few cycles of 10 min each. The supernatant suspension containing dissociated cells, to which medium containing 10% horse serum was added, was centrifuged at 500 g for 5 min. After centrifugation, the supernatant phase was discarded, and cells were resuspended in Dulbecco's modified Eagle medium supplemented with 10% heat-inactivated horse serum and 0.5% chick embryo extract. Cell suspensions were diluted to 1×10^6 cells/ml, and 300 μl was placed in 24 well plates (4 plates) collagen/gelatin-coated plastic culture dishes. Cultures were incubated in a humidified atmosphere of 5% CO2 and 95% air at 37° C. […] The growth medium was replaced every 3 days. The experiments were performed in vitro on these cardiomyocyte cultures after 3 to 5 days. […]\nLDH activity was determined using LDH-L kit (Thermo Trace, Melbourne, Australia) within the cardiac cell medium (PBS). […] LDH enzymatic activity was measured in a spectrophotometer at a wavelength of 340 nm at 30° C. […]"}},
  "data": [
    {"smiles": "Cc1ccc(CN(CCN(Cc2ccc(C)cn2)Cc2ccc(C)cn2)Cc2ccc(C)cn2)nc1", "note": "[Compound #6]", "values": [
      {"measurement": "toxicity in the rat (overall conclusion)", "setting": "[1]", "value": "not associated with any toxicity"},
      {"measurement": "protective effect against hypoxic insult (LDH release) compared with TPEN, FIG. 1A", "setting": "[2]", "value": "significantly better protective outcome from hypoxia than TPEN"}
    ]}
  ]
}
